Patent publication US20120028917A1, “Use Of N-(4-((3-(2-Amino-4-Pyrimidinyl)-2-Pyridinyl)Oxy)Phenyl)-4-(4-Methyl-2-Thienyl)-1-Phthalazinamine In The Treatment Of Antimitotic Agent Resistant Cancer” (Amgen Inc., priority 2009, published 2012)
Read-outs that look alike come from different tables or passages of the source.

Legend:
[1] = test system: MDA-MB-231 PTX paclitaxel resistant; assay: p-histone H3 fluorescence-based cell imaging assay; design: species or system human; details: for EC50: MDA-MB-231-PTX*, Breast, P-gp+, read-out: Cellular EC50; for IC50: MDA-MB-231 PTX paclitaxel resistant, P-gp +
Experimental: (§1) All high-content cell assays were performed on an ArrayScan VTi HCS Reader (Cellomics). Tumor cell lines were treated with AMG 900, AZD1152, MK-0457, or PHA-739358 (concentration range varied based on potency). The cells were prepared for intracellular staining with an anti-p-histone H3 Ser^10 antibody as previously described (1). Detection was performed with an anti-rabbit IgG-alexa-568 antibody and DAPI. The cellular levels of p-histone H3 were analyzed using Target Activation V2 algorithm (Cellomics) to determine the percentage of positive cells. For the imaging assays, the concentration-response curves and corresponding IC50 and EC50 values were calculated using the percentage of cells affected versus the DMSO control.

MDA-MB-231 parental = assay: p-histone H3 fluorescence-based cell imaging assay; design: species or system human; details: P-gp −
Experimental: as §1

MES-SA parental = assay: p-histone H3 fluorescence-based cell imaging assay; design: species or system human; details: P-gp −
Experimental: as §1

[2] = test system: MES-SA-Dx5 doxorubicin resistant; assay: p-histone H3 fluorescence-based cell imaging assay; design: species or system human; details: for EC50: MES-SA Dx5*, Uterine, P-gp+, read-out: Cellular EC50; for IC50: MES-SA-Dx5 doxorubicin resistant, P-gp +
Experimental: as §1

[3] = test system: NCI-H460 PTX paclitaxel resistant; assay: p-histone H3 fluorescence-based cell imaging assay; design: species or system human; details: for EC50: NCI-H460-PTX*, Lung, P-gp+, read-out: Cellular EC50; for IC50: NCI-H460 PTX paclitaxel resistant, P-gp +
Experimental: as §1

NCI-H460 parental = assay: p-histone H3 fluorescence-based cell imaging assay; design: species or system human; details: P-gp −
Experimental: as §1

RPMI8226 = assay: ≧4N DNA content assay (flow cytometry); format: cell-based, human
Experimental: (§2) Tumor cells were treated with AMG 900, AZD1152, MK-0457, or PHA-739358 (range concentration varied based on potency) for 24 hours and processed for cell-cycle analysis (DNA staining only) as previously described (1). Cells were analyzed on a LSRII flow cytometer using BD FACS Diva software. The concentration-response curves and corresponding EC50 values were calculated using the percentage of cells with ≧4N DNA content versus the DMSO control.

U226-B1 = assay: ≧4N DNA content assay (flow cytometry); format: cell-based, human; details: U226-B1, BCRP −, 24 hours
Experimental: as §2

HCT15 = assay: Cellular EC50, additional cell lines (Table 6-B); format: cell-based, human; details: P-gp+
Experimental: as §1, §2

MCF-7 = assay: Cellular EC50, additional cell lines (Table 6-B); format: cell-based, human; details: MCF-7, Breast
Experimental: as §1, §2

769P = assay: Cellular EC50, additional cell lines (Table 6-B); format: cell-based; details: Homo sapiens, Kidney, P-gp+
Experimental: as §1, §2

SNU499 = assay: Cellular EC50, additional cell lines (Table 6-B); format: cell-based; details: Homo sapiens, Liver, P-gp+
Experimental: as §1, §2

HCT116 parental = assay: ≧4N DNA content assay (FIG. 6-A); format: cell-based; details: Homo sapiens, HCT-116, 24 hours, read-out: cellular ≧4N DNA content EC50
Experimental: as §2
(§3) HCT116 cell lines were treated with increasing concentrations of AMG 900 or AZD1152 for 24 hours. Flow cytometry was used to assess the accumulation of cells with ≧4N DNA content expressed as a percentage of the DMSO-treated control (POC). The concentration-response curves and calculated EC50 values were determined from two independent experiments (bars, ±SD).

HCT116 AZD1152-resistant [4] = assay: ≧4N DNA content assay (FIG. 6-A); format: cell-based; details: Homo sapiens, HCT-116; HCT116 AZD1152-resistant subline; 24 hours; read-out: cellular ≧4N DNA content EC50
Experimental: Tumor cell lines were obtained from the American Type Culture Collection (ATCC) unless otherwise specified. The MDA-MB-231-PTX and NCI-H460-PTX cell lines were established by growing the cells in the presence of increasing concentrations of paclitaxel over a period of 6 months. The HCT116 AZD1152-resistant cell line was established by growing the cells in the presence of AZD1152 at 80 nmol/L.
as §2, §3

HCT116 AZD1152-resistant [5] = assay: Colony formation assay (FIG. 6-B); format: cell-based, human; details: HCT116 variant subline, at 50 nmol/L
Experimental: Tumor cell lines were obtained from the American Type Culture Collection (ATCC) unless otherwise specified. The MDA-MB-231-PTX and NCI-H460-PTX cell lines were established by growing the cells in the presence of increasing concentrations of paclitaxel over a period of 6 months. The HCT116 AZD1152-resistant cell line was established by growing the cells in the presence of AZD1152 at 80 nmol/L. Tumor cells were treated with AMG 900, paclitaxel or AZD1152 (0.5, 5, 50 nmol/L) for 48 hours, washed twice with complete media, and cells were re-plated at a density of 5000 cells per well in drug-free complete media. Cells were grown until the DMSO control wells were confluent. Cells were stained with crystal violet dye (Sigma), washed with distilled water, and imaged using a digital scanner (Hewlett-Packard). Colony formation assay was performed with HCT116 cell lines (parental and AZD1152-resistant). Cells were treated with DMSO, AMG 900, AZD1152, or paclitaxel at the indicated concentrations for 48 hours and re-plated in complete media lacking the inhibitor. After the DMSO-treated cells reached confluence, the cells were stained with crystal violet and imaged (duplicate wells).

[6] = Homo sapiens, RPMI-8226, RPMI8226, BCRP +, 24 hours, read-out: ≧4N DNA Content assay, EC50 value
[7] = Homo sapiens, RPMI-8226**, Multiple Myeloma, P-gp− and/or BCRP+, read-out: Cellular EC50

| Compound | EC50 ([1]; Homo sapiens) [nM] | IC50 ([1]; Homo sapiens) [nM] | IC50 (MDA-MB-231 parental; Homo sapiens) [nM] | IC50 (MES-SA parental; Homo sapiens) [nM] | EC50 ([2]; Homo sapiens) [nM] | IC50 ([2]; Homo sapiens) [nM] | EC50 ([3]; Homo sapiens) [nM] | IC50 ([3]; Homo sapiens) [nM] | IC50 (NCI-H460 parental; Homo sapiens) [nM] | EC50 (RPMI8226; [6]) [nM] | EC50 (RPMI8226; [7]) [nM] | EC50 (U226-B1; Homo sapiens) [nM] | EC50 (HCT15; Homo sapiens, HCT-15, Colon) [nM] | EC50 (MCF-7; Homo sapiens, MCF7) [nM] | EC50 (769P) [nM] | EC50 (SNU499) [nM] | also measured |
| --- | --- | --- | --- | --- | --- | --- | --- | --- | --- | --- | --- | --- | --- | --- | --- | --- | --- |
| CO[C@@H](C(=O)N1Cc2n[nH]c(NC(=O)c3ccc(N4CCN(C)CC4)cc3)c2C1)c1ccccc1 [PHA-739358] | > 1250 | > 1250 | 49 | 113 | > 1250 | > 1250 | > 1250 | > 1250 | 510 | > 1250 | > 1250 | 67 | > 1250 | 68 | > 1250 | > 1250 | – |
| CCN(CCCOc1ccc2c(Nc3cc(CC(=O)Nc4cccc(F)c4)n[nH]3)ncnc2c1)CCOP(=O)(O)O [AZD1152] | > 500 | > 500 | 16 | 51 | > 500 | > 500 | > 500 | > 500 | 131 | 865 | 865 | 12 | > 625 | 11 | 703 | > 1250 | EC50 (HCT116 parental): 34 nM; EC50 (HCT116 AZD1152-resistant [4]): 672 nM; sensitivity in colony formation (HCT116 AZD1152-resistant [5]): insensitive |
| Cc1cc(Nc2cc(N3CCN(C)CC3)nc(Sc3ccc(NC(=O)C4CC4)cc3)n2)n[nH]1 [MK-0457] | – | – | – | – | – | – | – | – | – | – | – | – | – | – | – | – | EC50 [1]: 277 nM; IC50 [1]: 277 nM; IC50 (MDA-MB-231 parental): 43 nM; IC50 (MES-SA parental): 51 nM; EC50 [2]: > 1250 nM; IC50 [2]: > 1250 nM; EC50 [3]: 468 nM; IC50 [3]: 468 nM; IC50 (NCI-H460 parental): 123 nM; EC50 (RPMI8226; RPMI8226, BCRP +, 24 hours, read-out: ≧4N DNA Content assay, EC50 value): 162 nM; EC50 (RPMI8226; RPMI-8226**, Multiple Myeloma, P-gp− and/or BCRP+, read-out: Cellular EC50): 162 nM; EC50 (U226-B1): 46 nM; EC50 (HCT15; Colon): 908 nM; EC50 (MCF-7): 27 nM |
